# From patent US20160106719A1, “Transplantation Adjuvant in Cell Therapy Using Neural Progenitor Cells” (SUMITOMO DAINIPPON PHARMA CO., LTD., priority 2013, published 2016)
# Assays:
# [1] = tested on: TH+ neurons derived from mouse iPS cells; test: In vitro survival of TH+ neurons with caspase 3 expression as index of apoptosis; type: cell-based; details: control 18.0±5.9%; no significant difference among four groups
# Protocol: After the cell sorting, in order to induce the reaggregation of the cells, a PSA-NCAM^+ cell group was seeded in a DMEM/F12 medium (manufactured by Wako Pure Chemical Industries, Ltd.) in a 96-well plate at a concentration (cell density) of 20000 cells/well. The DMEM/F12 medium contained 1% N-2 supplement, 200 nM ascorbic acid, 2% B27 supplement (manufactured by Invitrogen), 0.5 mM L-glutamine and 1% P/S. In order to prevent apoptosis, a ROCK inhibitor, Y-27632 (manufactured by Wako Pure Chemical Industries, Ltd.), was used at a concentration of 30 μM during the cell sorting process and the following overnight cultivation. On day 10 after starting the SFEB, any one of valproic acid (VPA) (manufactured by Sigma-Aldrich), zonisamide (ZNS) sodium salt (manufactured by Sumitomo Dainippon Pharma Co., Ltd.), 17β estradiol (E2) (manufactured by Sigma-Aldrich), a glial cell line derived neurotrophic factor (GDNF) (manufactured by R & D Systems) and PBS(-) was added to the medium for 4 days. Each of VPA, ZNS and E2 was used at three different concentrations. Specifically, the concentration of VPA was 0.01 mM, 0.1 mM or 1 mM, the concentration of ZNS was 1 μM, 10 μM or 100 μM, and the concentration of E2 was 1 nM, 10 nM or 100 nM. GDNF was added at a concentration of […] to be used as a positive control. […]
# [2] = tested on: re-aggregated PSA-NCAM+ cells (neural progenitor cells derived from mouse iPS cell line 440A3); test: In vitro differentiation of mouse iPS cell-derived neural progenitor cells into dopaminergic neurons (immunocytochemistry for marker molecules); type: cell-based; details: for ratio of TH+ cells: day 10 to 14, control 5.2±1.1%
# Protocol: DMEM contained 1% fetal bovine serum (FBS), 5% knockout serum replacement (KSR; manufactured by Invitrogen), 0.1 mM non-essential amino acids, 1 mM sodium pyruvate, 0.1 mM 2-mercaptoethanol (2-ME; manufactured by Invitrogen), 2000 U/ml leukemia inhibitory factor (manufactured by Invitrogen), and 1.5 μg/ml puromycin. In order to differentiate and induce the iPS cells into neural cells, serum-free floating culture of embryoid bodies-like aggregates (SFEB) was employed. Specifically, aggregates of the 440A3 cells were separated into individual cells by using 0.25% trypsin/1 mM EDTA (ethylenediaminetetraacetic acid), and the resultant cells were seeded in a 96-well low adhesion plate (product name: Lipidure-Coat Plate A-US96, manufactured by NOF Corporation) at a concentration (cell density) of 3000 cells/well. Thereafter, re-aggregation of the 440A3 cells was induced in a differentiation medium containing GMEM (Glasgow Minimum Essential Medium), 5% KSR, 0.1 mM non-essential amino acids, 1 mM sodium pyruvate and 0.1 mM 2-ME, and this day was defined as day 0 (FIG. 1). During this differentiation process, various factors were added to the differentiation medium for inducing midbrain dopaminergic phenotypes as illustrated in FIG. 1. Specifically, from day 3 to day 7 after starting the SFEB, 20 ng/ml of mouse FGF-8b (manufactured by R & D Systems) was added, from day 4 to day 7 after starting the SFEB, 10 ng/ml of recombinant mouse sonic hedgehog (C25I1) N-terminus (manufactured by R & D Systems) was added, and on and after day 7 after starting the SFEB, 1% N-2 supplement (manufactured by Gibco) and 200 nM ascorbic acid were added. The KSR was removed from the differentiation medium on day 7 after starting the SFEB.
# On day 9 after starting the SFEB, the 440A3 cells were washed with phosphate buffered saline (PBS(-)) twice. Thereafter, the 440A3 cells were dissociated into single cells by five-minute incubation performed at 37° C. by using Accumax (manufactured by Innovate Cell Technologies, product name). The cells were collected with a FACS buffer. The FACS buffer was constituted by PBS(-) containing 2% FBS, 20 mM D-glucose and 1% penicillin/streptomycin (P/S, manufactured by Invitrogen). The collected cells were mechanically dissociated into a single cell suspension by a gentle pipetting operation.
# Next, the resultant cells were incubated with a mouse anti-PSA-NCAM antibody (dilution rate of 1:200, manufactured by Millipore) at 4° C. for about 30 minutes. Thereafter, a washing operation using a centrifuge was performed twice, and the resultant cells were further incubated for 30 minutes with a secondary antibody of a donkey anti-mouse IgG (dilution rate of 1:400, manufactured by Invitrogen) labeled with AlexaFluor 594. Dead cells and cell debris were excluded by using 7-aminoactinomycin-D (7-AAD, manufactured by BD Pharmigen) stain. The remaining living cells were suspended again at a final concentration (cell density) of 1×10^7 cells/ml. Cell sorting was conducted by using a FACSAria II cell sorter (manufactured by Becton Dickinson And Company) equipped with a 488 nm argon laser, a 633 nm helium-neon laser, a 100 μm nozzle and a FACSDiva software program. A PSA-NCAM positive rate was determined on the basis of a negative control not using a primary antibody.
# After the cell sorting, in order to induce the reaggregation of the cells, a PSA-NCAM^+ cell group was seeded in a DMEM/F12 medium (manufactured by Wako Pure Chemical Industries, Ltd.) in a 96-well plate at a concentration (cell density) of 20000 cells/well. The DMEM/F12 medium contained 1% N-2 supplement, 200 nM ascorbic acid, 2% B27 supplement (manufactured by Invitrogen), 0.5 mM L-glutamine and 1% P/S. In order to prevent apoptosis, a ROCK inhibitor, Y-27632 (manufactured by Wako Pure Chemical Industries, Ltd.), was used at a concentration of 30 μM during the cell sorting process and the following overnight cultivation. […]
structure (smiles),measurement,setting,value
"CCCC(CCC)C(=O)[O-].[Na+] [VPA, sodium 2-propylpentanoate]",ratio of dopaminergic neurons undergoing apoptosis (TH+ neurons expressing caspase 3),[1],low
same,ratio of TH+ cells,[2]; VPA 0.01 mM,12.1±1.5%
same,ratio of TH+ FOXA2+ cells,"[2]; VPA 0.1 mM, control 0.25±0.22%",1.00±0.58%
same,ratio of TH+ NURR1+ cells,"[2]; VPA 0.1 mM, control 0.37±0.32%",1.00±0.70%
same,ratio of TH+ cells,[2]; VPA 0.1 mM,11.7±0.4%
